Data as given in patent publication US20250228873A1, “C25 R AND S ISOMERS OF AMINOSTEROLS AND METHODS OF MAKING AND USING THE SAME” (Enterin, Inc., priority 2022, published 2025).
Several values for one entry are separate records, joined by “and”; a condition that tells them apart may be missing. Equal entries are not always repeated. Entries after “also recorded” stand apart in the source; their conditions may differ.

Assays:
stomach tissues = experiment: Stomach RNA-sequencing, ENT-02 (MSI-1436) treatment and congruence with ENT-03 (Example 10); format: in vivo, mice
Description: Samples of stomach tissues from the mice were analysed by RNA-sequencing on an Illumina platform.
To achieve these aims, data were subject to a quality control evaluation, differential expression and functional enrichment analyses, as well as a congruence analysis.
[…] At this threshold, differentially expressed genes were identified in all contrasts.
As mentioned previously, for statistical robustness, only those with an adjusted p-value <0.05 should be considered. […]
The amount of overlap is represented in FIGS. 28A-28D. For each comparison, the value in the plot represents the number of intersecting selected genes and the color represents the Jaccard index (the intersection over the union) for the two contrasts under consideration.
Scatter plots, upset plots, venn diagrams, hypergeometric tests and Spearman rank correlation tests were employed to assess the level of overlap as shown in FIGS. 15-27.

PTPN1/PTP1B = molecular target: T1, PTPN1/PTP1B (Homo sapiens, UniProt P18031); experiment: PTP1B inhibition, fluorescence time-course, 10-dose IC50 (Example 2); format: biochemical
T1 construct: The enzyme was the human truncated form (1-321), recombinantly produced in Escherichia coli; host or cells: Escherichia coli
T1 sequence (P18031 1-321): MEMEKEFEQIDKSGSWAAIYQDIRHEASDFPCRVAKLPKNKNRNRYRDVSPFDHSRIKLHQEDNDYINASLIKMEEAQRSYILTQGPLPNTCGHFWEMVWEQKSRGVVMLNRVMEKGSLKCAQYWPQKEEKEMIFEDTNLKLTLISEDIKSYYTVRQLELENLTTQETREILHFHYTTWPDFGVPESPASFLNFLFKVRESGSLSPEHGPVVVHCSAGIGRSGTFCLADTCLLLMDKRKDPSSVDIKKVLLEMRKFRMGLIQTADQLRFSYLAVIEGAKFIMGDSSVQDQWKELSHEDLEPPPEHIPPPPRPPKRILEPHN

[1] = system: stomach, jejunum and ileum; experiment: GI tract transcriptome (RNAseq) after oral ENT-03, young vs aged mice; format: in vivo, C57bl/6 male mice
Description: Young (20 week) and aged (80 week) C57bl/6 male mice were administered ENT-03 (40 mg/kg) or vehicle (water) by oral gavage daily for 2 weeks. Over this period of time clinical observations were unremarkable as were the gross and microscopic examinations of the GI tract. The transcriptomes of the stomach, jejunum and ileum were analyzed by RNAseq technology. Comparative analyses of the transcripts from untreated animals identified numerous transcripts that differed in abundance between the corresponding tissues from old and young individuals. […] Thus, within these three distinct regions of the mouse GI tract, ageing is associated with changes in the transcriptome.
Statistical analysis of RNA-sequencing data was performed using R programming language. Transcripts with less than one read count per million reads in all samples of each tissue were removed. The raw count data for the samples were then normalised using trimmed mean of M-values normalisation and transformed with voom (Law et al., 2014), resulting in log 2-transformed counts per million with associated precision weights. […] Statistical comparisons were performed using linear modelling, as implemented in the Bioconductor package limma (Ritchie et al., 2015). Significance values (p-values) were adjusted for multiple testing using Benjamini-Hochberg procedure (Benjamini et al., 1995). For each comparison (e.g. group A versus group B), a positive log 2-transformed fold change indicates up-regulation in group A relative to group B.
To investigate the overlap between contrasts, the number of overlapping differentially expressed genes (defined using adjusted p-value <0.05) between all pairwise combinations of the comparisons performed were counted. For each comparison, the Jaccard index, defined as the intersection over the union, measures the similarity between the two contrasts under consideration. The p-value was calculated using a hypergeometric test taking into account the universe size under the assumption that the contrasts and genes are independent.

hAPP-J20 mice = experiment: Morris water maze, amyloid Alzheimer's model; format: in vivo; conditions: 2.5 mg/kg/wk i.p. over 6 weeks, vs vehicle treated littermates
Description: The Morris water maze was used to test the effect of ENT-03 on spatial learning and memory deficits in 2 mouse models of familial Alzheimer's disease, hAPP-J20 mice that express a double mutant of the human amyloid precursor protein (Mucke et al., 2000), and PS19 mice that express the P301S mutant of the human microtubule associated protein tau (Yoshiyama et al., 2007).
hAPP-J20 mice expressing human APP bearing the Swedish and Indiana familial mutations (B6.Cg-Zbtb20Tg(PDGFB-APPSwInd)20Lms/2Mmjax, (Mucke et al., 2000)) and PS19 mice expressing the P301S mutation of human tau protein (B6;C3-Tg(Prnp-MAPT*P301S)PS19Vle/J (Yoshiyama et al., 2007)) were purchased from Jackson laboratories and maintained as colonies in the animal facility of the University of Ottawa. Heterozygous hAPP-J20 and PS19 mice were used. Genotypes were verified by PCR using genomic DNA isolated from tail or ear biopsies. […]
The Morris water maze test to analyze the ability of mice to learn and remember the location of a submerged platform in a pool containing opaque water was conducted in the Faculty of Medicine Behavior Core Laboratory at the University of Ottawa. […] On the probe day, crossings of the platform area and target quadrant were counted and swimming speed was measured using Ethovision automated video tracking software (Noldus).

[2] = Weight loss, i.p. once weekly over 6 weeks (FIG. 1C); format: in vivo, C57bl/6 male mice; conditions: intraperitoneal once weekly over 6 weeks
[3] = Weight loss, 3, 5, 10 mg/kg (FIG. 14); format: in vivo, C57bl/6 male mice; conditions: intraperitoneal 3, 5, 10 mg/kg once weekly over 2 weeks

Q: What does the source list for `CC(C)[C@@H](CC[C@@H](C)[C@H]1CC[C@H]2[C@@H]3[C@H](O)C[C@H]4C[C@@H](NCCCNCCCCNCCCN)CC[C@]4(C)[C@H]3CC[C@]12C)OS(=O)(=O)O` (single isomer, unassigned) [ENT-02 (MSI-1436), trodusquemine]?
A: overlap of genes downregulated in aged mice with genes up-regulated by treatment in old mice (stomach tissues; hypergeometric P<0.0001): overlapped significantly; overlap of genes down-regulated in ageing and up-regulated in treatment with those of ENT-03 (stomach tissues; stomach, congruence analysis): did not overlap with those affected by ENT-03; Slope (signal/min) (PTPN1/PTP1B; Conc 1.00E−04 M): −68 signal/min; Slope (signal/min) (PTPN1/PTP1B; Conc 1.11E−05 M): 292 signal/min; Slope (signal/min) (PTPN1/PTP1B; Conc 1.23E−06 M): 37260 signal/min; Slope (signal/min) (PTPN1/PTP1B; Conc 1.37E−07 M): 40137 signal/min; Slope (signal/min) (PTPN1/PTP1B; Conc 1.52E−08 M): 44021 signal/min; Slope (signal/min) (PTPN1/PTP1B; Conc 3.33E−05 M): −440 signal/min; Slope (signal/min) (PTPN1/PTP1B; Conc 3.70E−06 M): 16431 signal/min; Slope (signal/min) (PTPN1/PTP1B; Conc 4.12E−07 M): 39959 signal/min; Slope (signal/min) (PTPN1/PTP1B; Conc 4.57E−08 M): 42717 signal/min; Slope (signal/min) (PTPN1/PTP1B; Conc 5.08E−09 M): 43513 signal/min; HILLSLOPE (PTPN1/PTP1B; Table 5A): −2.19

Q: With `CC(CCC[C@@H](C)[C@H]1CCC2C3C(CC[C@@]21C)[C@@]1(C)CC[C@H](NCCCNCCCCNCCCN)C[C@@H]1C[C@H]3O)C(=O)O` (single isomer, unassigned) [ENT-03] as the compound, how does the “clinical observations, gross and microscopic examinations of the GI tract” value ([1]; 40 mg/kg oral gavage daily for 2 weeks, young and aged mice) read?
A: unremarkable

Q: And the “genes differentially expressed on treatment” value ([1]; ileum, aged mice)?
A: 1162 genes

Q: And the “genes differentially expressed on treatment” value ([1]; ileum, young mice)?
A: 80 genes

Q: And the “genes whose expression changed significantly in response to exposure” value ([1]; jejunum and ileum, both young and aged mice)?
A: no more than 2 genes

Q: What about the “genes differentially expressed on treatment” value ([1]; jejunum, aged mice) of the same compound?
A: 382 genes

Q: And the “genes differentially expressed on treatment” value ([1]; jejunum, young mice)?
A: 42 genes

Q: And the “genes down-regulated in ageing that are up-regulated by treatment in old mice” value ([1]; stomach)?
A: 37 genes and 36 genes

Q: And the “genes differentially expressed on treatment (p(adj)<0.05)” value ([1]; stomach, aged mice)?
A: 63 genes

Q: And the “ageing genes further down regulated in the ageing direction by treatment” value ([1]; stomach, young mice)?
A: 12 genes

Q: And the “genes differentially expressed on treatment (p(adj)<0.05)” value ([1]; stomach, young mice (20 weeks))?
A: 13 genes

Q: What about the “learning during the training phase (latency to find the hidden platform)” value (hAPP-J20 mice) of the same compound?
A: improved; also recorded: decreased the latency to find the hidden platform

Q: And the “memory on the probe day (platform area crossings, time in platform area)” value (hAPP-J20 mice)?
A: improved memory

Q: What about the “clinical appearance other than weight loss” value [2] of the same compound?
A: appeared clinically normal

Q: And the “effect on weight” value [2]?
A: dose dependent weight loss

Q: What about the “clinical appearance other than weight loss” value [3] of the same compound?
A: appeared clinically normal

Q: What about the “effect on weight” value [3] of the same compound?
A: dose dependent weight loss
